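Growth conditions: 96-well plates. Treatment: test compound, 48 hours, 5 concentrations. Analysis: linear interpolation between bracketing concentrations; unreached endpoints set to highest concentration. GI50 is the concentration that inhibits growth by half.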 Calls of active or inactive are those of the source. Rule as the data show it: active = GI50 up to about 1.1 µM and inactive = higher.
Legend:
Test in all cases: NCI-60 cell line screen, 48 h
HT-29 = test system: HT-29
HOP-62 = test system: HOP-62
UACC-62 = test system: UACC-62
NCI-H522 = test system: NCI-H522
MOLT-4 = test system: MOLT-4
NCI-H460 = test system: NCI-H460
SN12C = test system: SN12C
OVCAR-3 = test system: OVCAR-3
CCRF-CEM = test system: CCRF-CEM
SF-268 = test system: SF-268
SK-MEL-2 = test system: SK-MEL-2
K562 = test system: K562
M14 = test system: M14
RPMI-8226 = test system: RPMI-8226
HL-60 = test system: HL-60
NCI/ADR-RES = test system: NCI/ADR-RES
KM12 = test system: KM12
PC-3 = test system: PC-3
MCF7 = test system: MCF7

Measured: GI50

Cc1c(N(Cc2ccccc2)Cc2ccccc2)nc(S(C)(=O)=O)nc1S(C)(=O)=O
inactive: HT-29 1.94 µM | HOP-62 14.7 µM | UACC-62 1.71 µM | NCI-H522 1.73 µM | MOLT-4 2.11 µM | NCI-H460 5.14 µM | SN12C 2.08 µM | OVCAR-3 1.86 µM | CCRF-CEM 2.2 µM | SF-268 1.95 µM | SK-MEL-2 11.9 µM | K562 2.08 µM | M14 2.14 µM | RPMI-8226 2.74 µM | HL-60 2.09 µM

COc1cccc(C2C(C(=O)O)=C(CO)Oc3cc4c(cc32)OCO4)c1 (stereo not given)
inactive: HT-29 > 100 µM | UACC-62 > 100 µM | NCI-H522 > 100 µM | MOLT-4 > 100 µM | NCI-H460 > 100 µM | SN12C > 100 µM | OVCAR-3 > 100 µM | CCRF-CEM > 100 µM | SF-268 > 100 µM | SK-MEL-2 > 100 µM | K562 > 100 µM | M14 > 100 µM | RPMI-8226 > 100 µM | HL-60 > 100 µM

CCOc1c(/N=N/c2ccccc2Cl)c(-c2ccccc2)nn1C(=S)S
inactive: HT-29 25.2 µM | HOP-62 > 100 µM | UACC-62 31.2 µM | NCI-H522 25.2 µM | NCI/ADR-RES 33.8 µM | MOLT-4 23.9 µM | NCI-H460 45.2 µM | KM12 33 µM | SN12C 9.06 µM | OVCAR-3 25 µM | SF-268 > 100 µM | SK-MEL-2 34.8 µM | K562 19 µM | M14 47.9 µM | PC-3 48.2 µM | MCF7 37.8 µM | HL-60 33.6 µM

CC(C)(Br)C1(O)CCCN1C(=O)c1ccccc1 (stereo not given)
inactive: HT-29 > 100 µM | UACC-62 > 100 µM | NCI-H522 > 100 µM | MOLT-4 > 100 µM | NCI-H460 > 100 µM | KM12 > 100 µM | SN12C > 100 µM | OVCAR-3 > 100 µM | CCRF-CEM > 100 µM | SF-268 > 100 µM | SK-MEL-2 > 100 µM | K562 33 µM | M14 > 100 µM | HL-60 > 100 µM

COc1ccc([Se][Se]c2ccc(OC)cc2OC)c(OC)c1
inactive: HT-29 3.14 µM | HOP-62 > 10 µM | UACC-62 1.93 µM | NCI-H522 1.86 µM | MOLT-4 3.07 µM | NCI-H460 4.29 µM | KM12 3.52 µM | SN12C 2 µM | OVCAR-3 3.52 µM | CCRF-CEM 2.08 µM | SF-268 2.19 µM | SK-MEL-2 4.08 µM | K562 2.88 µM | M14 2.92 µM | RPMI-8226 2.48 µM | HL-60 2.43 µM

COC(=O)/C([Se]c1c(C)cc(C)cc1C)=C(\[Se]c1c(C)cc(C)cc1C)C(=O)OC
inactive: HT-29 > 100 µM | HOP-62 > 100 µM | UACC-62 > 100 µM | NCI-H522 > 100 µM | MOLT-4 > 100 µM | NCI-H460 > 100 µM | KM12 > 100 µM | SN12C > 100 µM | OVCAR-3 > 100 µM | CCRF-CEM > 100 µM | SF-268 > 100 µM | SK-MEL-2 > 100 µM | K562 > 100 µM | M14 > 100 µM | RPMI-8226 > 100 µM | HL-60 > 100 µM

C=COCCCOc1ccccc1
inactive: HT-29 > 100 µM | HOP-62 > 100 µM | NCI-H522 > 100 µM | MOLT-4 > 100 µM | NCI-H460 > 100 µM | KM12 > 100 µM | SN12C > 100 µM | OVCAR-3 > 100 µM | CCRF-CEM > 100 µM | SF-268 > 100 µM | SK-MEL-2 > 100 µM | K562 > 100 µM | M14 > 100 µM | RPMI-8226 > 100 µM | HL-60 > 100 µM

CCCn1cc2c3c(cccc31)C1C=C(C)CN(C)C1C2 (stereo not given)
inactive: HT-29 12.9 µM | HOP-62 31.7 µM | UACC-62 23.4 µM | NCI-H522 20.7 µM | NCI/ADR-RES 20.8 µM | MOLT-4 9.66 µM | NCI-H460 12 µM | KM12 24.2 µM | SN12C 27.5 µM | OVCAR-3 20.4 µM | CCRF-CEM 3.67 µM | SF-268 29 µM | SK-MEL-2 29.1 µM | K562 2.56 µM | RPMI-8226 6.61 µM | MCF7 9.71 µM | HL-60 1.51 µM

COC[C@@H](Cc1ccc(OC)c(OC)c1)[C@@H](COC)Cc1ccc(OC)c(OC)c1
inactive: HT-29 > 100 µM | UACC-62 > 100 µM | NCI-H522 64.1 µM | MOLT-4 60.3 µM | NCI-H460 > 100 µM | KM12 > 100 µM | SN12C > 100 µM | OVCAR-3 > 100 µM | CCRF-CEM 56.5 µM | SF-268 > 100 µM | SK-MEL-2 > 100 µM | K562 > 100 µM | M14 > 100 µM | HL-60 > 100 µM

CC(C)(C)OC(=O)NC1CCCC1=O (stereo not given)
inactive: HT-29 > 100 µM | HOP-62 > 100 µM | UACC-62 > 100 µM | NCI-H522 > 100 µM | MOLT-4 > 100 µM | NCI-H460 > 100 µM | KM12 > 100 µM | SN12C > 100 µM | OVCAR-3 > 100 µM | CCRF-CEM > 100 µM | SF-268 > 100 µM | SK-MEL-2 > 100 µM | K562 > 100 µM | M14 > 100 µM

C/C(=N/NS(=O)(=O)c1ccc([N+](=O)[O-])cc1)c1cccc[n+]1[O-]
inactive: HT-29 > 100 µM | HOP-62 > 100 µM | UACC-62 > 100 µM | NCI-H522 > 100 µM | MOLT-4 > 100 µM | NCI-H460 > 100 µM | KM12 > 100 µM | SN12C > 100 µM | OVCAR-3 > 100 µM | CCRF-CEM > 100 µM | SF-268 > 100 µM | K562 > 100 µM | M14 > 100 µM | RPMI-8226 > 100 µM | HL-60 > 100 µM

C=C1C(=O)O[C@@H]2[C@H]3O[C@]3(C)CCC=C(C)CC[C@@H]12
inactive: HT-29 23.6 µM | HOP-62 49.1 µM | UACC-62 16.8 µM | NCI-H522 5.47 µM | NCI/ADR-RES 15 µM | MOLT-4 14.2 µM | NCI-H460 18.8 µM | KM12 16.8 µM | SN12C 22.9 µM | OVCAR-3 18.4 µM | CCRF-CEM 8.38 µM | SF-268 23.7 µM | SK-MEL-2 16.2 µM | K562 21.8 µM | RPMI-8226 8.71 µM | MCF7 16.4 µM | HL-60 4.69 µM

CN(C)/N=N/c1ccc([N+](=O)[O-])cc1C(N)=O
inactive: HT-29 > 100 µM | HOP-62 > 90.4 µM | UACC-62 > 100 µM | NCI-H522 > 92.7 µM | NCI/ADR-RES > 100 µM | MOLT-4 > 79.6 µM | NCI-H460 > 100 µM | KM12 > 100 µM | SN12C > 100 µM | OVCAR-3 > 100 µM | CCRF-CEM > 100 µM | SF-268 > 100 µM | SK-MEL-2 > 100 µM | K562 > 100 µM | RPMI-8226 > 100 µM | MCF7 > 100 µM

— ChEMBL document CHEMBL1201862, “PubChem BioAssay data set” (2004)
